# Measured values as given in patent publication US4570005A, “Process for the preparation of 2-arylpropyl ether or thioether derivatives” (priority 1980, dated 1986).
# Read-outs that look alike come from different tables or passages of the source.
# Columns and labels:
# [1] = test system: resistant green rice leafhopper (collected at Nakagawara); test: Test 3: Effect on Resistant Green Rice Leafhopper (collected at Nakagawara); format: in vivo, Nephotettix cincticeps Uhler (Green rice leafhopper); details: Nephotettix cincticeps, 24 h, read-out: Mortality (%), Green Rice Leafhopper Collected at Nakagawara
# Procedure: (§1) To a mixture of 20 parts of the compound of the present invention and 20 parts of Sorpol SM-200 (registered tradename for the product supplied by Toho Chemical Industrial Co., Ltd.) was added 60 parts of xylol, and the mixture was suffciently blended. The obtained emulsifiable concentrate was diluted at a predetermined concentration with distilled water, and the obtained dilution was used.
# (§2) Seedlings (having 2 to 3 leaves) of paddy rice were hydroponically cultured in a pot having a diameter of 5 cm. A chemical dilution having a concentration of 100 or 20 ppm, prepared in the same manner as described in Test 1, was applied with a sprayer at a rate of 3 ml per pot. The treated seedlings were air-dried and covered with a metal net cylinder, and female adults of resistant green rice leafhopper (collected at Nakagawara) and sensitive green rice leafhopper (collected at Chigasaki) were set, respectively, free in the pot at a density of 10 adults per pot. After 24 hours, the numbers of killed and living adults were counted and the mortality was calculated. The test was made on three pots and the average value was calculated.
# [2] = test system: sensitive green rice leafhopper (collected at Chigasaki); test: whole plant or invertebrate; format: in vivo; details: Nephotettix cincticeps, sensitive female adults, 24 hours, read-out: Mortality (%), Green Rice Leafhopper Collected at Chigasaki
# Procedure: as §1, §2
# [3] = Test 9: Toxicity Test (acute oral toxicity, mice); details: mouse, in vivo, po
# Procedure: A predetermined amount of a solution or suspension of a test compound in corn oil was orally administered to male mice having a body weight of 19 to 23 g (0.2 ml per 10 g of the body weight). After 7 days, the number of killed mice was counted and the influences on the mice were examined.
# diamond back moth = test: Test 4: Effect on Diamond Back Moth; format: in vivo; details: Plutella
# Procedure: as §1
# Cabbage leaves were spread in a plastic cup, and 10 third-instar larvae of diamond back moth were set free in the cup.
# A chemical dilution having a concentration of 100 or 20 ppm, prepared in the same manner as described in Test 1, was applied from an applicator at a rate of 3 ml per cup.
# After scattering of the chemical dilution, the cup was covered, and after 24 hours, the numbers of killed and living larvae were counted and the mortality was calculated. The test was made on three cups and the average value was calculated.
# tobacco cutworm [4] = test: Test 1: Effect on Tobacco Cutworm (leaf immersion), mortality after 24 hours; format: in vivo; details: second-instar larvae, 25° C
# Procedure: as §1
# An emulsifiable concentrate of a test compound prepared according to the method described in Formulation Example 1 was diluted to a concentration of 100 or 20 ppm. Sweet-potato leaves were immersed in the dilution for 10 seconds, air-dried and placed in a plastic cup having a diameter of 10 cm. Then second-instar larvae of tobacco cutworm were set free in the cup. The cup was allowed to stand still in a thermostat chamber maintained at 25° C. After 24 hours, the numbers of killed and living larvae were counted and the mortality was calculated. The obtained result was expressed by an average value obtained from the mortality calculated in three test cups.
# tobacco cutworm [5] = test: Test 2: Tobacco Cutworm Larva Dipping Test, mortality after 24 hours; format: in vivo
# Procedure: as §1
# A dilution having a chemical concentration of 100 or 20 ppm was prepared in the same manner as described in Test 1.
# Second-instar and fifth-instar larvae of tobacco cutworm were dipped in the dilution for 5 seconds, and the excessive dilution was removed by a filter paper. Then, the larvae were set free in a plastic cup and an artificial diet was supplied thereto. The cup was allowed to stand still in a thermostat chamber maintained at 25° C. After 24 hours, the numbers of the killed and living larvae were counted and the mortality was calculated. The test was made on three cups and the result was expressed by an average value.
# [6] = 20 ppm, third-instar larvae, 24 hours, read-out: Mortality (%)
# [7] = 100 ppm, third-instar larvae, 24 hours, read-out: Mortality (%)
# [8] = 24 h, read-out: Motality (%), Fifth-Instar Larvae
SMILES,mortality at 20 ppm [1],mortality at 100 ppm [1],mortality at 20 ppm [2],mortality at 100 ppm [2],LD50 at 168 h [3],mortality at 20 ppm (diamond back moth; [6]),mortality at 100 ppm (diamond back moth; [7]),mortality at 20 ppm (tobacco cutworm [4]),mortality at 100 ppm (tobacco cutworm [4]),other results
"Cc1ccc2cc(C(C)(C)COCc3cccc(Oc4ccccc4)c3)ccc2c1 [Compound 71, 3-Phenoxybenzyl 2-(6-methyl-2-naphthyl)-2-methylpropyl ether]",100%,100%,100%,100%,> 500 mg/kg,60%,100%,–,–,–
"CCSc1ccc(C(C)(C)COCc2cccc(Oc3ccccc3)c2)cc1 [Compound 100, 3-Phenoxybenzyl 2-(4-ethylthiophenyl)-2-methylpropyl ether]",95%,100%,80%,100%,> 500 mg/kg,–,–,80%,100%,–
"CCOc1ccc(Oc2cccc(COCC(C)(C)c3ccc(Cl)cc3)c2)cc1 [Compound 94, 3-(4-Ethoxyphenoxy)benzyl 2-(4-chlorophenyl)-2-methylpropyl ether]",100%,100%,100%,100%,> 500 mg/kg,80%,100%,100%,100%,–
CC(C)(COCc1cccc(Oc2ccccc2)c1)c1ccc(F)c(Cl)c1 [Compound 75],–,–,–,–,> 500 mg/kg,–,–,80%,100%,–
"CCOc1ccc(C(C)(C)COCc2cccc(Oc3ccc(Br)cc3)c2)cc1 [Compound 66, 3-(4-Bromophenoxy)benzyl 2-(4-ethoxyphenyl)-2-methylpropyl ether]",100%,100%,100%,100%,> 500 mg/kg,60%,100%,100%,100%,–
"CCOc1ccc(Oc2cccc(COCC(C)(C)c3ccc(OCC)cc3)c2)cc1 [Compound 101, 3-(4-Ethoxyphenoxy)benzyl 2-(4-ethoxyphenyl)-2-methylpropyl ether]",100%,100%,100%,100%,> 500 mg/kg,100%,100%,100%,100%,"mortality at 20 ppm (tobacco cutworm [5]; 20 ppm, fifth-instar larvae, 24 hours, read-out: Motality (%), Fifth-Instar Larvae): 100%; mortality at 20 ppm (tobacco cutworm [5]; 20 ppm, second-instar larvae, 24 hours, read-out: Motality (%), Second-Instar Larvae): 100%; mortality at 100 ppm (tobacco cutworm [5]; 100 ppm, fifth-instar larvae, 24 hours, read-out: Motality (%), Fifth-Instar Larvae): 100%; mortality at 100 ppm (tobacco cutworm [5]; 100 ppm, second-instar larvae, 24 hours, read-out: Motality (%), Second-Instar Larvae): 100%"
"CCOC(C)c1ccc(C(C)(C)COCc2cccc(Oc3ccccc3)c2)cc1 (centres unmarked) [Compound 84, 3-Phenoxybenzyl 2-[4-(1-ethoxyethyl)phenyl]-2-methylpropyl ether]",–,–,–,–,> 500 mg/kg,60%,100%,–,–,–
"CCOc1ccc(C(C)(C)COCc2cccc(Oc3ccccc3)c2)cc1OC [Compound 99, 3-Phenoxybenzyl-2-(4-ethoxy-3-methoxyphenyl)-2-methylpropyl ether]",–,–,–,–,> 500 mg/kg,80%,100%,100%,100%,–
"COCOc1ccc(C(C)(C)COCc2cccc(Oc3ccccc3)c2)cc1 [Compound 83, 3-Phenoxybenzyl 2-(4-methoxymethoxyphenyl)-2-methylpropyl ether]",–,–,–,–,> 500 mg/kg,–,–,100%,100%,–
"CC(C)(COCc1cccc(Oc2ccccc2)c1)c1ccc(C#N)cc1 [Compound 54, 3-Phenoxybenzyl 2-(4-cyanophenyl)-2-methylpropyl ether]",–,–,–,–,> 500 mg/kg,–,–,100%,100%,–
"CCOCOc1ccc(C(C)(C)COCc2cccc(Oc3ccccc3)c2)cc1 [Compound 81, 3-Phenoxybenzyl 2-(4-ethoxymethoxyphenyl)-2-methylpropyl ether]",–,–,–,–,> 500 mg/kg,–,–,90%,100%,–
"CCOC(=O)c1ccc(C(C)(C)COCc2cccc(Oc3ccccc3)c2)cc1 [Compound 85, 3-Phenoxybenzyl 2-(4-ethoxycarbonylphenyl)-2-methylpropyl ether]",100%,100%,100%,100%,> 500 mg/kg,–,–,80%,100%,–
"CC(C)(COCc1cccc(Oc2ccccc2)c1)c1ccc(Oc2ccccc2)cc1 [Compound 76, 3-Phenoxybenzyl 2-(4-phenoxyphenyl)-2-methylpropyl ether]",–,–,–,–,> 500 mg/kg,–,–,90%,100%,–
"CC(C)(COCc1cccc(Oc2ccc(F)cc2)c1)c1ccc(F)c(Cl)c1 [Compound 58, 3-(4-Fluorophenoxy)benzyl 2-(3-chloro-4-fluorophenyl)-2-methylpropyl ether]",100%,100%,100%,100%,> 500 mg/kg,–,–,100%,100%,–
"CCOc1c(C)cc(C(C)(C)COCc2cccc(Oc3ccccc3)c2)cc1C [Compound 97, 3-Phenoxybenzyl 2-(4-ethoxy-3,5-dimethylphenyl)-2-methylpropyl ether]",100%,100%,100%,100%,> 500 mg/kg,–,–,100%,100%,–
"CC(C)(COCc1cccc(Oc2ccccc2)c1)c1ccc(OCCCl)cc1 [Compound 108, 3-Phenoxybenzyl 2-[4-(2-chloroethoxy)phenyl]-2-methylpropyl ether]",100%,100%,95%,100%,> 500 mg/kg,–,–,100%,100%,–
"CC(=O)c1ccc(C(C)(C)COCc2cccc(Oc3ccccc3)c2)cc1 [Compound 60, 3-Phenoxybenzyl 2-(4-acetylphenyl)-2-methylpropyl ether]",90%,100%,60%,100%,> 500 mg/kg,–,–,80%,100%,–
"CC(C)(COCc1cccc(Oc2ccccc2)c1)c1ccc(OC(Cl)=C(Cl)Cl)cc1 [Compound 92, 3-Phenoxybenzyl 2-[(1,2,2-trichlorovinyloxy)phenyl]-2-methylpropyl ether]",–,–,–,–,> 500 mg/kg,–,–,90%,100%,–
"CCC(C)Oc1ccc(C(C)(C)COCc2cccc(Oc3ccccc3)c2)cc1 (centres unmarked) [Compound 70, 3-Phenoxybenzyl 2-[4-(sec-butoxy)phenyl]-2-methylpropyl ether]",100%,100%,100%,100%,> 500 mg/kg,–,–,90%,100%,–
"CNC(=O)ON=C(C)SC [Comparative Compound (f), S-methyl N-(methylcarbamoyloxy)thioacetoamidate, reference compound]",–,–,–,–,28 mg/kg,–,–,–,–,"mortality at 20 ppm (tobacco cutworm [5]; [8]): 0%; mortality at 100 ppm (tobacco cutworm [5]; [8]): 80%; mortality at 20 ppm (tobacco cutworm [5]; 24 h, read-out: Motality (%), Second-Instar Larvae): 30%; mortality at 20 ppm (diamond back moth; 24 h): 0%; mortality at 100 ppm (diamond back moth; 24 h): 10%"
